From patent publication US5851782A, “Inhibitors of ceramidase” (Duke University, priority 1996, dated 1998)

How the values were obtained:
[1] = tested on: ceramide-activated protein phosphatase (CAPP); experiment: CAPP serine/threonine phosphatase activity in vitro; format: biochemical; details: myelin basic protein phosphorylated by protein kinase A as substrate
[2] = tested on: alkaline ceramidase; experiment: Alkaline ceramidase activity in vitro at pH 9.0; format: biochemical, human; details: final concentrations up to 50 μM
Protocol: Measurement of ceramidase activity in HL-60 cells. Ceramidase activity in HL-60 cells was measured by a modification of the method of Gatt and Yavin (Methods Enzymol. 14:139 (1969)). Cells were disrupted by sonication in 0.25M sucrose, 1 mM EDTA, and centrifuged at 10,000×g for 10 min after which the supernatant was centrifuged at 100,000×g for 60 min. Ten μl of 1 mM ceramide substrate ([^3 H]C16 -ceramide) was mixed with 100 μl of Triton X-100 (0.1%) in chloroform/methanol, 2:1, and 100 μl of 0.2% sodium cholate in chloroform/methanol, 2:1, after which the solvent was evaporated under N2 at 70° C. To this mixture, 30 μl of water was added and the tubes were heated for 5 s in an 80° C. water bath and then put on ice. Fifty μl of the appropriate buffer depending on desired pH was added followed by 20 μl of 50 mM MgCl2 and 100 μl of cell extract. In experiments using inhibitors, the desired inhibitor was added in ethanol either with the substrate or directly to the final solution. The reaction mixture was incubated for 1 h at 37° C. The ^3 H-fatty acid products of ceramidase were separated by the addition of 2 ml of Dole's solution (isopropyl alcohol, heptane, NaOH), 1.2 ml of heptane, and 1 ml of water. After vortexing and centrifugation, the upper phase was discarded and the lower phase was washed twice with heptane and the upper phase discarded each time. Finally, 1 ml of 1N H2 SO4, and 2 ml of heptane were added, and after vortexing and centrifugation the upper phase was transferred for counting by liquid scintillation.
In order to evaluate the interactions of D- and L-e-MAPP with ceramidase, in vitro studies we conducted using cytosolic and membrane fractions from HL-60 cells. Initially, ceramidase activity was examined for pH dependence using tritium-labeled C16 -ceramide as substrate. […] The alkaline ceramidase activity was very similar to that described in fibroblasts and cerebellar tissue (Sugita et al, Biochim. Biophys. Acta 398:125 (1975), Wertz and Downing, FEBS Lett. 268:110 (1990)). In initial studies, the ability of this ceramidase to utilize D-e- and L-e-MAPP as substrates was investigated. […] These studies corroborate the cellular metabolism studies showing that L-e-MAPP is a substrate for ceramidase in vitro and in cells.
Next, the ability of D- and L-e-MAPP to interfere with hydrolysis of C16 -ceramide by ceramidase at pH 4.5 and 9.0 was evaluated. Inhibition of ceramidase activity by D-e-MAPP was compared to that by N-oleoylethanolamine, a putative inhibitor of acid ceramidase (Sugita et al, Biochim. Biophys. Acta 398:125 (1975)). […] The effects of N-oleoylethanolamine are consistent with the previously reported Ki of 700 μM (Sugita et al, Biochim. Biophys. Acta 398:125 (1975)). […] In contrast, D-e-MAPP was a relatively poor inhibitor of acid ceramidase with less than 10% inhibition of acid ceramidase at 50 μM (FIG. 6C).

[3] = biological target: T1, acid ceramidase (Homo sapiens, UniProt Q13510); details: Sugita et al, Biochim. Biophys. Acta 398:125 (1975); read-out: previously reported Ki; cited from earlier work
T1 sequence (Q13510 22-395): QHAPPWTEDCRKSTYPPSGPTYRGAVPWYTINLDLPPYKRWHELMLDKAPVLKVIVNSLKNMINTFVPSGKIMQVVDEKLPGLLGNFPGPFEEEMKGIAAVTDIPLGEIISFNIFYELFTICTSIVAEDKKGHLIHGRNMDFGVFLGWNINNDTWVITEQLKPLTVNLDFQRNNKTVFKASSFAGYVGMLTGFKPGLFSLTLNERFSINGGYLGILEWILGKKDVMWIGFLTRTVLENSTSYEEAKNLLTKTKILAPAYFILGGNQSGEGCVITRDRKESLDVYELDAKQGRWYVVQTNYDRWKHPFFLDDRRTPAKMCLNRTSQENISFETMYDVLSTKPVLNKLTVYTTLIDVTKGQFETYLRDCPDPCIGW

[4] = biological target: T1, acid ceramidase; experiment: Acid ceramidase activity in vitro at pH 4.5; format: biochemical; set-up: Ceramidase activity was determined from total homogenates of HL-60 cells; endogenous in cells; host or cells: HL-60 cells; details: pH 4.5, 50 μM C16-ceramide substrate
Protocol: Measurement of ceramidase activity in HL-60 cells. Ceramidase activity in HL-60 cells was measured by a modification of the method of Gatt and Yavin (Methods Enzymol. 14:139 (1969)). Cells were disrupted by sonication in 0.25M sucrose, 1 mM EDTA, and centrifuged at 10,000×g for 10 min after which the supernatant was centrifuged at 100,000×g for 60 min. Ten μl of 1 mM ceramide substrate ([^3 H]C16 -ceramide) was mixed with 100 μl of Triton X-100 (0.1%) in chloroform/methanol, 2:1, and 100 μl of 0.2% sodium cholate in chloroform/methanol, 2:1, after which the solvent was evaporated under N2 at 70° C. To this mixture, 30 μl of water was added and the tubes were heated for 5 s in an 80° C. water bath and then put on ice. Fifty μl of the appropriate buffer depending on desired pH was added followed by 20 μl of 50 mM MgCl2 and 100 μl of cell extract. In experiments using inhibitors, the desired inhibitor was added in ethanol either with the substrate or directly to the final solution. The reaction mixture was incubated for 1 h at 37° C. The ^3 H-fatty acid products of ceramidase were separated by the addition of 2 ml of Dole's solution (isopropyl alcohol, heptane, NaOH), 1.2 ml of heptane, and 1 ml of water. After vortexing and centrifugation, the upper phase was discarded and the lower phase was washed twice with heptane and the upper phase discarded each time. […]

[5] = biological target: T2, Glucosylceramide synthase (Homo sapiens, UniProt Q16739); experiment: Glucocerebroside (glucosylceramide) synthase assay in vitro; format: biochemical; details: 20 μM
T2 sequence (Q16739 1-394): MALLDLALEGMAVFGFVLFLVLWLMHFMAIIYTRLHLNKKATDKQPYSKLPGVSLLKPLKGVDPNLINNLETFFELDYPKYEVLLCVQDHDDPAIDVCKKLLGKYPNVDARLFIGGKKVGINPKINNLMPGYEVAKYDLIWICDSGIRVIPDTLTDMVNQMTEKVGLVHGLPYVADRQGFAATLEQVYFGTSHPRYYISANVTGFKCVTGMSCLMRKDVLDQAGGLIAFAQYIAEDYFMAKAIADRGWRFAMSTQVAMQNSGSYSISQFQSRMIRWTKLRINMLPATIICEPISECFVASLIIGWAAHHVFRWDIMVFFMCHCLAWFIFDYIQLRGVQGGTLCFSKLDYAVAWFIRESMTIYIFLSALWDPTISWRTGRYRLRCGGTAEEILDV
Protocol: Glucocerebrosidase and glucocerebroside synthase assays. In vitro assays for gluccerebrosidase and for cerebroside synthase were performed as described (Abe et al, J. Biochem. (Tokyo) 11:191 (1992)).
In addition to ceramidase, inhibition of cerebroside synthase and sphingomyelin synthase or stimulation of sphingomyelinase or cerebrosidase could result in elevations in endogenous ceramide levels. Therefore, the effects of D- and L-e-MAPP were examined on these enzyme activities in vitro and in cells.

[6] = tested on: HL-60 human myelocytic leukemia cells; experiment: HL-60 cell proliferation (cell counting); format: cell-based; details: HL-60, 3 μM D-MAPP plus fumonisin B1, 48 h
Protocol: Proliferation and cell cycle studies. HL-60 human myelocytic leukemia cells (obtained from the American Type Culture Collection) were grown in RPMI 1640 medium containing 10 fetal calf serum at 37° C. in 5% CO2 incubator. For proliferation and cell cycle studies, cells were resuspended at a density of 2×10^5 cells/ml in serum-free media containing insulin (5 mg/liter) and transferrin (5 mg/liter) and sodium selenite (5 μg/liter) for 2-4 h. Cells were then treated with the indicated compounds. Ethanol concentration was always maintained at less than 0.1%. Cell proliferation was determined by counting cells using a hemacytometer, cell viability was evaluated by trypan blue dye exclusion, and cell cycle analysis was determined by propidium iodide flow cytometry as described (Chao et al, J. Biol. Chem. 267:23459 (1992)).
In structure-function analysis of ceramide-mediated growth suppression using amides of phenylaminoalcohols, D- and L-erythro-MAPP were employed. In these studies, HL-60 cells were treated with 5 μM of either D-e-MAPP or L-e-MAPP, and growth was determined at the indicated time points (FIG. 2A).
Studies were conducted examining the uptake and metabolism of D- and L-MAPP. In the first set of studies, the effect of duration of exposure of HL-60 cells to D-e-MAPP on the bioactivity of the molecule was determined. D-e-MAPP added to cells could be washed off by repeated sedimentation and washing of cells. Thus, after five cycles of washing, less than 10% of D-MAPP remained associated with the cell pellet-compared to unwashed cells (FIG. 5A).

For CCCCCCCCCCCCC/C=C/[C@@H](O)[C@H](CO)NC(=O)CCCCC [C6 -ceramide, reference compound], the “activation of CAPP in vitro” value [1] was “concentration-dependent stimulation of activity”.

For CCCCCCCC/C=C\CCCCCCCC(=O)NCCO [N-oleoylethanolamine, reference compound], the “inhibition of alkaline ceramidase in vitro” value [2] is given as “less than 10%”, the Ki [3] is given as 700 µM and the IC50 [4] is given as roughly 500 µM.

In the case of CCCCCCCCCCCCCC(=O)NC(CN1CCOCC1)C(O)c1ccccc1 (stereo not shown) [PMMP, reference compound], the Glucosylceramide synthase activity ([5]; Control 1.009 ± 0.0424) is reported as 0.208 ± 0.008 nmol/h/mg protein and the “inhibition of cerebroside synthase activity” value ([5]; Table I) is reported as “significant inhibition”.

For CCCCC(C)C(OC(=O)CC(CC(=O)O)C(=O)O)C(CC(C)CC(O)CCCCC(O)CC(O)C(C)N)OC(=O)CC(CC(=O)O)C(=O)O (stereo not shown) [fumonisin B1, reference compound], the “effect on growth suppression by D-e-MAPP” value [6] was “did not inhibit the effects of D-e-MAPP on growth”.
